For data set [1] the following is noted: cited from earlier work.
Data set [2] is described as follows: Intrinsic metabolic clearance determined in human liver microsomes. The settings on record: pH 7.4. Format: in vitro ADME.
The conditions of data set [3]: ref Supplemental Table S1, cited from earlier work; for HBD: number of hydrogen bond donors; for PSA: polar surface area; for log D: octanol/water at pH 7.4.
For data set [4] the following is noted: Humans, cited from earlier work; for CL: i.v.; for CL / Vss / F: ref Supplemental Table S2; for F: oral bioavailability; for Urinary excretion (f e): excreted unchanged in urine, ref Supplemental Table S1.
The conditions of data set [5]: cited from earlier work; for F: po.
For data set [6] the following is noted: Humans, blood/plasma ratio; ref Supplemental Table S1; cited from earlier work.
The conditions of data set [7]: Rats, blood/plasma ratio; ref Supplemental Table S1; cited from earlier work.
The conditions of data set [8]: Rats, fraction unbound; ref Supplemental Table S1; cited from earlier work.
A further data set has as its system Caco‐2 cells (TC7 clone). To be noted: Equation 11 from measured P‐Caco2.
The conditions of data set [9]: human, Caco-2, pH 7.4, with cyclosporine A 10 μM.
Setting [10] is: no medium marked (buffer pH 7.4), ref Supplemental Table S1.
Setting [11] is: Rats, i.v., ref Supplemental Table S2.
[12] abbreviates: FaHIF, fasted human intestinal fluid.

Consider 17 compounds from paper PMC5412686 (Biopharmaceutics & Drug Disposition, 2017).

Like-named read-outs stand apart in the source and are kept apart here.

As to `COc1ccc([C@@H]2Sc3ccccc3N(CCN(C)C)C(=O)[C@@H]2OC(C)=O)cc1` [Diltiazem], in [1] (setting [10]), the “Solubility (Biorelevant media or Buffer, pH 7.4)” value (“Solubility” below) is 0.47 mg/ml. In [2], this compound yielded an intrinsic clearance (microsomal CLint) at 1 μM of 35 µL/min/mg. Further, in data set [3], the HBD is reported as 0, the PSA is 56.5 and the “Base pKa” value is given as 8.1. In addition, in data set [4], the CL is 48.3 L/h and the Vss was 5.2 L/kg. The CL in data set [5] (setting [11]) was 42 mL/min/kg. In addition, the F in [5] (rat, in vivo) is 0.06.
As to `CCN(CC)CC(=O)Nc1c(C)cccc1C` [Lidocaine], the R b in data set [6] is recorded as 0.87; in data set [7], 1.27.
Regarding `CC[C@H]1OC(=O)[C@H](C)[C@@H](O[C@H]2C[C@@](C)(OC)[C@@H](O)[C@H](C)O2)[C@H](C)[C@@H](O[C@@H]2O[C@H](C)C[C@H](N(C)C)[C@H]2O)[C@](C)(O)C[C@@H](C)C(=O)[C@H](C)[C@@H](O)[C@]1(C)O` [Erythromycin], in [1] (setting [10]), the “Solubility” value was 2 mg/ml. Also, in [3], the HBD is 5, the “log D” value is on record as 1.16 and the PSA was 203.3. In [4], the CL is 18.73 L/h, the F is on record as 0.21 and the Vss is 0.60 L/kg. Besides, the CL in data set [5] (setting [11]) is 105 mL/min/kg. The F in [5] (rat, in vivo) was 0.14.
As for `COc1ccc(CCN(C)CCCC(C#N)(c2ccc(OC)c(OC)c2)C(C)C)cc1OC` (stereo not drawn) [Verapamil], in [3], the HBD is 0 and the PSA is 56.3.
`Cc1nnc2n1-c1ccc(Cl)cc1C(c1ccccc1Cl)=NC2` [Triazolam]: the “Solubility” value in data set [1] (setting [10]) was 0.005 mg/ml. Also, in data set [3], the HBD is 0 and the PSA was 33.3. In data set [4], the “Urinary excretion (f e)” value was 2 % of dose, the CL is 12.72 L/h and the F is listed as 0.8. Besides, the f up in [8] is 0.28. In addition, in data set [5] (rat, in vivo, iv), the CL is 51.4 mL/min/kg. Also, the F in [5] (rat, in vivo) is 0.16.
With `Cc1ccc(-c2nc3ccc(C)cn3c2CC(=O)N(C)C)cc1` [Zolpidem], in [1] (setting [10]), the “Solubility” value is 23 mg/ml. For the same compound, the R b in data set [6] was 0.66. For the same compound, the intrinsic metabolic clearance (microsomal CLint) at 1 μM in data set [2] was under 10 µL/min/mg. Also, in data set [3], the HBD was 0, the PSA is 30.0 and the “Acid pKa” value is recorded as 6.3. Further, in data set [4], the “Urinary excretion (f e)” value is reported as < 1 % of dose, the CL was 18.85 L/h, the F was 0.78 and the Vss is 0.68 L/kg. The CL in data set [5] (setting [11]) was 15 mL/min/kg. The F in data set [5] (rat, in vivo) was 0.27. Besides, in data set [7], the R b was 0.86.
For the compound `COC(=O)C1=C(C)NC(C)=C(C(=O)OC)C1c1ccccc1[N+](=O)[O-]` [Nifedipine], in data set [4], the “Urinary excretion (f e)” value is on record as 0 % of dose.
For `Oc1ccc2c3c1O[C@H]1[C@@H](O)CC[C@@]4(O)[C@@H](C2)N(CC2CCC2)CC[C@]314` [Nalbuphine], the “Calculated P eff from P‐Caco2” value in the data set on Caco‐2 cells (TC7 clone) is recorded as 3.8 10^−4 cm/s. This compound displayed a Papp at 2 h, 1 μM in [9] of 29.8 ×10⁻⁶ cm/s. Also, the “Solubility” value in [1] (setting [10]) is reported as 35.5 mg/ml. For the same compound, in data set [2], the microsomal CLint at 1 μM was under 10 µL/min/mg. Also, in data set [3], the HBD was 3, the “log D” value was 0.81, the PSA is recorded as 78.3 and the “Base pKa” value is 10.0. In addition, in data set [4], the CL was 90 L/h and the Vss was 4.63 L/kg. Moreover, the CL in data set [5] (setting [11]) is 63 mL/min/kg.
In the case of `CCCc1nn(C)c2c(=O)[nH]c(-c3cc(S(=O)(=O)N4CCN(C)CC4)ccc3OCC)nc12` [Sildenafil], the “Calculated P eff from P‐Caco2” value in the data set with Caco‐2 cells (TC7 clone) is 3.7 10^−4 cm/s. The compound also showed a Papp at 2 h, 1 μM in data set [9] of 28.6 ×10⁻⁶ cm/s. Further, in data set [1] (setting [10]), the “Solubility” value is 3.5 mg/ml. Besides, the intrinsic clearance (microsomal CLint) at 1 μM in [2] amounted to 98 µL/min/mg. Besides, in data set [3], the HBD is reported as 1, the “log D” value is 2.45, the PSA is listed as 105.2 and the “Base pKa” value is reported as 6.0. Further, in data set [4], the CL was 40.08 L/h and the F is given as 0.41. In addition, the CL in data set [5] (setting [11]) is 38.5 mL/min/kg. Also, the F in data set [5] (rat, in vivo) is 0.06.
Consider `COC(=O)C1=C(C)NC(C)=C(C(=O)OCC(C)C)C1c1ccccc1[N+](=O)[O-]` (stereo not drawn) [Nisoldipine], for which, in the data set on Caco‐2 cells (TC7 clone), the “Calculated P eff from P‐Caco2” value is 5.2 10^−4 cm/s. This compound also returned a Papp at 2 h, 1 μM in data set [9] of 56.7 ×10⁻⁶ cm/s. In addition, the “Solubility” value in data set [1] (setting [10]) was 0.006 mg/ml. For the same compound, the intrinsic clearance (microsomal CLint) at 1 μM in data set [2] is over 1000 µL/min/mg. In data set [3], the HBD is recorded as 1, the “log D” value is recorded as 4.96 and the PSA was 110.5. Also, in [4], the “Urinary excretion (f e)” value is listed as < 1 % of dose, the CL was 50.82 L/h, the F is 0.04 and the Vss is 4.1 L/kg. Besides, the f up in data set [8] is given as 0.009. The CL in data set [5] (setting [11]) was 45.8 mL/min/kg. Further, in data set [5] (rat, in vivo), the F is recorded as 0.03.
Regarding `C=CC[C@@H]1/C=C(\C)C[C@H](C)C[C@H](OC)[C@H]2O[C@@](O)(C(=O)C(=O)N3CCCC[C@H]3C(=O)O[C@H](/C(C)=C/[C@@H]3CC[C@@H](O)[C@H](OC)C3)[C@H](C)[C@@H](O)CC1=O)[C@H](C)C[C@@H]2OC` [Tacrolimus], the “Solubility” value in [1] (setting [10]) is 0.008 mg/ml. In addition, in data set [6], the R b was 35. In [3], the HBD is listed as 3, the “log D” value is reported as 3.96, the PSA was 185.9 and the “Base pKa” value is 9.3. Also, in data set [4], the “Urinary excretion (f e)” value is listed as < 1 % of dose, the CL was 78.75 L/h, the F is given as 0.21 and the Vss was 1.74 L/kg. Besides, the CL in [5] (setting [11]) was 16.5 mL/min/kg. Further, in [5] (rat, in vivo), the F is given as 0.11. In addition, the R b in [7] is 1.4.
For the compound `COCCOC(=O)C1=C(C)NC(C)=C(C(=O)OC(C)C)C1c1cccc([N+](=O)[O-])c1` (stereo not drawn) [Nimodipine], the “Calculated P eff from P‐Caco2” value with Caco‐2 cells (TC7 clone) is listed as 3.3 10^−4 cm/s. For the same compound, the Papp at 2 h, 1 μM in data set [9] was found to be 22.2 ×10⁻⁶ cm/s. Besides, the “Solubility” value in data set [1] (setting [10]) was 0.024 mg/ml. Besides, in [2], the microsomal CLint at 1 μM is over 1000 µL/min/mg. In data set [3], the HBD was 1, the “log D” value is listed as 2.86 and the PSA was 121.6. Also, in [4], the CL is 58.8 L/h, the F is 0.33 and the distribution volume (Vss) was 0.94 L/kg. Also, the CL in data set [5] (setting [11]) is 1.5 mL/min/kg. For the same compound, the F in data set [5] (rat, in vivo) is given as 0.22.
In the case of `COCCc1ccc(OCC(O)CNC(C)C)cc1` (stereo not drawn) [Metoprolol], the “Solubility” value in data set [1] (setting [12]) is reported as 299.8 (FaHIF) mg/ml. The microsomal CLint at 1 μM in data set [2] is 19 µL/min/mg. Besides, in data set [3], the HBD is recorded as 2, the “log D” value is 0.16 and the PSA was 55.0. Moreover, in data set [4], the CL was 65.34 L/h and the Vss is 5.18 L/kg. Further, in [5] (setting [11]), the CL was 65.2 mL/min/kg.
As for `CCC(C)n1ncn(-c2ccc(N3CCN(c4ccc(OCC5COC(Cn6cncn6)(c6ccc(Cl)cc6Cl)O5)cc4)CC3)cc2)c1=O` (stereo not drawn) [Itraconazole], the “Solubility” value in data set [1] (setting [12]) was 0.006 (FaHIF) mg/ml. Further, in [3], the HBD is given as 0, the “log D” value is 3.27 and the PSA was 84.7. Moreover, in data set [4], the “Urinary excretion (f e)” value is recorded as < 1 % of dose, the CL was 22.86 L/h and the F is on record as 0.76. For the same compound, in data set [8], the f up is on record as 0.009. The CL in [5] (setting [11]) was 9.1 mL/min/kg. Also, the F in data set [5] (rat, in vivo) is recorded as 0.35.
For `CN(C)CCc1c[nH]c2ccc(C[C@H]3COC(=O)N3)cc12` [Zolmitriptan], the “Solubility” value in data set [1] (setting [10]) was 20 mg/ml. In data set [3], the HBD is reported as 2 and the PSA is listed as 56.8. Also, in data set [4], the “Urinary excretion (f e)” value is recorded as 8 % of dose, the CL was 43.06 L/h and the F is 0.7. Besides, the CL in [5] (setting [11]) was 29.4 mL/min/kg. In addition, the F in [5] (rat, in vivo) was 0.41.
As to `CN1CCN2c3ncccc3Cc3ccccc3C2C1` (stereo not drawn) [Mirtazapine], the “Calculated P eff from P‐Caco2” value in the data set on Caco‐2 cells (TC7 clone) was 4.0 10^−4 cm/s. This compound also yielded a Papp at 2 h, 1 μM in data set [9] of 33.2 ×10⁻⁶ cm/s. Moreover, the “Solubility” value in data set [1] (setting [10]) is reported as 0.002 mg/ml. Further, in [2], the microsomal CLint at 1 μM turned out to be 11 µL/min/mg. Further, in [3], the HBD is recorded as 0, the “log D” value is listed as 0.28 and the PSA is recorded as 12.3. Besides, in data set [4], the CL is 38.3 L/h, the F was 0.4 and the Vss was 3.52 L/kg. Besides, in [5] (setting [11]), the CL is 29.4 mL/min/kg. Also, the F in data set [5] (rat, in vivo) is 0.07.
For the compound `COc1ccc(C(CN(C)C)C2(O)CCCCC2)cc1` (stereo not drawn) [Venlafaxine], the “Calculated P eff from P‐Caco2” value with Caco‐2 cells (TC7 clone) is given as 4.0 10^−4 cm/s. The same compound showed a Papp at 2 h, 1 μM in data set [9] of 33.2 ×10⁻⁶ cm/s. The compound further showed an intrinsic clearance (microsomal CLint) at 1 μM in data set [2] of under 10 µL/min/mg. In [3], the HBD was 1, the “log D” value is 0.76 and the PSA was 32.8. For the same compound, in data set [4], the “Urinary excretion (f e)” value is given as 4.6 % of dose, the CL was 60.35 L/h and the F is listed as 0.37. Further, the CL in [5] (setting [11]) is 64.5 mL/min/kg. Further, the F in [5] (rat, in vivo) is given as 0.13.
